Test results reported in the supplement of paper PMC10307832.

Tests used:
Assay in all cases: relative viability (nuclei count vs DMSO), 5 days (fraction); higher = more cells survive
HARA = tested on: HARA
In short: (§1)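 Lung cancer cell lines were pin-tool dosed in 1536-well plates on the day after seeding, with either a lone drug or a fixed anchor-drug dose plus five library-drug doses (not always all listed) in √10 steps. Nuclei were counted on 4× images after 5 days. Relative viability is the ratio of treated-well to vehicle-well nuclei counts, with each value a median of duplicate plates.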

201T = tested on: 201T
In short: as §1

BEN = tested on: BEN
In short: as §1

NCI-H1666 = tested on: NCI-H1666
In short: as §1

LOU-NH91 = tested on: LOU-NH91
In short: as §1

NCI-H1993 = tested on: NCI-H1993
In short: as §1

NCI-H596 = tested on: NCI-H596
In short: as §1

NCI-H727 = tested on: NCI-H727
In short: as §1

NCI-H2126 = tested on: NCI-H2126
In short: as §1

NCI-H2023 = tested on: NCI-H2023
In short: as §1

NCI-H2087 = tested on: NCI-H2087
In short: as §1

NCI-H441 = tested on: NCI-H441
In short: as §1

NCI-H2009 = tested on: NCI-H2009
In short: as §1

NCI-H23 = tested on: NCI-H23
In short: as §1

NCI-H1395 = tested on: NCI-H1395
In short: as §1

HCC-44 = tested on: HCC-44
In short: as §1

NCI-H838 = tested on: NCI-H838
In short: as §1

NCI-H3122 = tested on: NCI-H3122
In short: as §1

LCLC-103H = tested on: LCLC-103H
In short: as §1

NCI-H2347 = tested on: NCI-H2347
In short: as §1

NCI-H647 = tested on: NCI-H647
In short: as §1

NCI-H650 = tested on: NCI-H650
In short: as §1

EMC-BAC-2 = tested on: EMC-BAC-2
In short: as §1

For `O=C(O)c1ccc(-c2c[nH]c3ncc(-c4ccccc4)cc23)cc1C1CCCC1` + CS(=O)(=O)N1CCN(Cc2cc3nc(-c4cccc5[nH]ncc45)nc(N4CCOCC4)c3s2)CC1 [Pictilisib] (partner 1 µM), the relative viability (HARA; first compound 0.04 µM) was 0.31, the relative viability (HARA; first compound 0.1265 µM) was 0.604 and the relative viability (HARA; first compound 0.4 µM) was 0.449. For the same molecule, the relative viability (HARA; first compound 1.265 µM) was 0.545, the relative viability (201T; first compound 0.04 µM) was 0.695 and the relative viability (201T; first compound 0.1265 µM) was 0.619. It also gave a relative viability (201T; first compound 0.4 µM) of 0.608, a relative viability (201T; first compound 1.265 µM) of 0.656 and a relative viability (BEN; first compound 0.04 µM) of 0.546. For the same molecule, the relative viability (BEN; first compound 0.1265 µM) was 0.609, the relative viability (BEN; first compound 0.4 µM) was 0.584 and the relative viability (BEN; first compound 1.265 µM) was 0.555. For the same molecule, the relative viability (NCI-H1666; first compound 0.04 µM) was 0.406, the relative viability (NCI-H1666; first compound 0.1265 µM) was 0.439 and the relative viability (NCI-H1666; first compound 0.4 µM) was 0.451. For the same molecule, the relative viability (NCI-H1666; first compound 1.265 µM) was 0.251, the relative viability (LOU-NH91; first compound 0.04 µM) was 0.513 and the relative viability (LOU-NH91; first compound 0.1265 µM) was 0.517. The relative viability (LOU-NH91; first compound 0.4 µM) was 0.512, the relative viability (LOU-NH91; first compound 1.265 µM) was 0.52 and the relative viability (NCI-H1993; first compound 0.04 µM) was 0.823. The relative viability (NCI-H1993; first compound 0.4 µM) was 0.742, the relative viability (NCI-H1993; first compound 1.265 µM) was 0.789 and the relative viability (NCI-H596; first compound 0.04 µM) was 0.353. The relative viability (NCI-H596; first compound 0.1265 µM) was 0.399, the relative viability (NCI-H596; first compound 0.4 µM) was 0.353 and the relative viability (NCI-H596; first compound 1.265 µM) was 0.41. The relative viability (NCI-H727; first compound 0.04 µM) was 0.363, the relative viability (NCI-H727; first compound 0.1265 µM) was 0.403 and the relative viability (NCI-H727; first compound 0.4 µM) was 0.654. It also gave a relative viability (NCI-H727; first compound 1.265 µM) of 0.354, a relative viability (NCI-H2126; first compound 0.04 µM) of 0.551 and a relative viability (NCI-H2126; first compound 0.1265 µM) of 0.486. For the same molecule, the relative viability (NCI-H2126; first compound 0.4 µM) was 0.497, the relative viability (NCI-H2126; first compound 1.265 µM) was 0.46 and the relative viability (NCI-H2023; first compound 0.04 µM) was 0.249. For the same molecule, the relative viability (NCI-H2023; first compound 0.1265 µM) was 0.302, the relative viability (NCI-H2023; first compound 0.4 µM) was 0.228 and the relative viability (NCI-H2023; first compound 1.265 µM) was 0.224. The relative viability (NCI-H2087; first compound 0.04 µM) was 0.963, the relative viability (NCI-H2087; first compound 0.1265 µM) was 1.09 and the relative viability (NCI-H2087; first compound 0.4 µM) was 0.758. The relative viability (NCI-H2087; first compound 1.265 µM) was 0.712, the relative viability (NCI-H441; first compound 0.04 µM) was 0.489 and the relative viability (NCI-H441; first compound 0.1265 µM) was 0.517. For the same molecule, the relative viability (NCI-H441; first compound 0.4 µM) was 0.469, the relative viability (NCI-H441; first compound 1.265 µM) was 0.338 and the relative viability (NCI-H2009; first compound 0.04 µM) was 0.793. For the same molecule, the relative viability (NCI-H2009; first compound 0.1265 µM) was 0.836, the relative viability (NCI-H2009; first compound 0.4 µM) was 0.788 and the relative viability (NCI-H2009; first compound 1.265 µM) was 0.586. For the same molecule, the relative viability (NCI-H23; first compound 0.04 µM) was 0.532, the relative viability (NCI-H23; first compound 0.1265 µM) was 0.519 and the relative viability (NCI-H23; first compound 0.4 µM) was 0.43. It also gave a relative viability (NCI-H23; first compound 1.265 µM) of 0.428, a relative viability (NCI-H1395; first compound 0.04 µM) of 0.769 and a relative viability (NCI-H1395; first compound 0.1265 µM) of 0.691. For the same molecule, the relative viability (NCI-H1395; first compound 0.4 µM) was 0.625, the relative viability (NCI-H1395; first compound 1.265 µM) was 0.555 and the relative viability (HCC-44; first compound 0.04 µM) was 0.697. It also gave a relative viability (HCC-44; first compound 0.1265 µM) of 0.676, a relative viability (HCC-44; first compound 0.4 µM) of 0.668 and a relative viability (HCC-44; first compound 1.265 µM) of 0.56. It also gave a relative viability (NCI-H838; first compound 0.04 µM) of 0.423, a relative viability (NCI-H838; first compound 0.1265 µM) of 0.57 and a relative viability (NCI-H838; first compound 0.4 µM) of 0.506. The relative viability (NCI-H838; first compound 1.265 µM) was 0.447, the relative viability (NCI-H3122; first compound 0.04 µM) was 0.565 and the relative viability (NCI-H3122; first compound 0.1265 µM) was 0.683. It also gave a relative viability (NCI-H3122; first compound 0.4 µM) of 0.619, a relative viability (NCI-H3122; first compound 1.265 µM) of 0.574 and a relative viability (LCLC-103H; first compound 0.04 µM) of 0.631. For the same molecule, the relative viability (LCLC-103H; first compound 0.1265 µM) was 0.693, the relative viability (LCLC-103H; first compound 0.4 µM) was 0.57 and the relative viability (LCLC-103H; first compound 1.265 µM) was 0.632. It also gave a relative viability (NCI-H2347; first compound 0.04 µM) of 0.622, a relative viability (NCI-H2347; first compound 0.1265 µM) of 0.789 and a relative viability (NCI-H2347; first compound 0.4 µM) of 0.621. It also gave a relative viability (NCI-H2347; first compound 1.265 µM) of 0.75, a relative viability (NCI-H647; first compound 0.04 µM) of 0.418 and a relative viability (NCI-H647; first compound 0.1265 µM) of 0.38. It also gave a relative viability (NCI-H647; first compound 0.4 µM) of 0.478, a relative viability (NCI-H647; first compound 1.265 µM) of 0.344 and a relative viability (NCI-H650; first compound 0.04 µM) of 0.993. The relative viability (NCI-H650; first compound 0.1265 µM) was 0.889, the relative viability (NCI-H650; first compound 0.4 µM) was 0.701 and the relative viability (NCI-H650; first compound 1.265 µM) was 0.681. For the same molecule, the relative viability (EMC-BAC-2; first compound 0.04 µM) was 0.555, the relative viability (EMC-BAC-2; first compound 0.1265 µM) was 0.557 and the relative viability (EMC-BAC-2; first compound 0.4 µM) was 0.537. For the same molecule, the relative viability (EMC-BAC-2; first compound 1.265 µM) was 0.554.
